Measured values: patent publication US8518978B2, “Pharmaceutical composition for prevention and treatment of restenosis comprising isoxazole derivatives” (SK Biopharmaceuticals Co., Ltd., priority 2007, dated 2013)

How the values were obtained:
[1] = system: Wnt/β-catenin signal transduction (β-catenin activity) in HEK293 cell line; experiment: Cell based Wnt agonist screening system (Tcf/Lef firefly luciferase reporter) in HEK293 cell line; parameters: species or system human
Source text: (§1) Two kinds of human cancer cell lines HEK293 and SW480 were used to determine the ex vivo activity of the compounds according to one exemplary embodiment of the present invention.
(§2) In order to determine the activity of the wnt/β-catenin signal transduction in each cancer cell line, the present inventors introduced a gene as shown in FIG. 1 into cells, the gene having binding sites (5× TCFs) of Tcf/Lef transcription regulation protein to which β-catenin binds and having a firefly fluorescent protein (firefly luciferase) as a marker that can determine the activity of the Tcf/Lef transcription regulation protein. Then, the present inventors constructed a cell based Wnt agonist screening system by treating the gene-introduced cells with G418 to obtain a single clone of a cell line whose Tcf/Lef transcription regulation protein is continuously expressed due to the introduction of the gene. […]
(§3) When the prepared cell line was treated with lithium chloride (LiCl) that is a positive control in the cell based Wnt agonist screening system as the control for determining the Wnt agonist activity of the isoxazole derivative according to one exemplary embodiment of the present invention, an expression level of the fluorescent protein was measured, and plotted in a graph as shown in FIG. 3. […]

[2] = system: Wnt/β-catenin signal transduction (β-catenin activity) in SW480 cell line; experiment: Cell based Wnt agonist screening system (Tcf/Lef firefly luciferase reporter) in SW480 cell line; parameters: species or system human; conditions: Conc. 20000 μM, control that defines 100%
Source text: as §1, §2, §3

SMILES	Emax at 120 µM ([1]; Homo sapiens, Conc. 120 μM, 24-hour treatment, relative to LiCl 20 mM = 100%, read-out: Relative Max. Activity (%))	Relative Max. Activity (%) ([1]; Conc. 20000 μM, control that defines 100%)	Relative Max. Activity (%) [2]
Nc1ccc(-c2cc(C(=O)NCCCn3ccnc3)no2)cc1 [Derivative 48, 5-(4-amino-phenyl)-isoxazole-3-carboxylic acid (3-imidazol-1-yl-propyl)-amide]	246%		
[Cl-].[Li+] [LiCl, lithium chloride, reference compound]		100%	100%
